Assay results taken from ChEMBL document CHEMBL3044873, “Aryl N, N-Dimethylcarbamates, Synergists for Organophosphorus Insecticides against Organophos-phorusresistant Rice Stem Borers” (J Pestic Sci, 1990).

Experiments:
Type in all cases: functional
Chilo suppressalis [1] = assay: Potentiation of fenitrothion-induced insecticidal activity against OP-resistant Chilo suppressalis Hata-f (rice stem borer) assessed as synergistic ratio at 1:10 fenitrothion to compound ratio relative to fenitrothion alone
Chilo suppressalis [2] = assay: Potentiation of fenitrothion-induced insecticidal activity against OP-susceptible Chilo suppressalis (rice stem borer) S strain assessed as synergistic ratio at 1:10 fenitrothion to compound ratio relative to fenitrothion alone
Chilo suppressalis [3] = assay: Potentiation of pirimiphos-methyl-induced insecticidal activity against OP-resistant Chilo suppressalis Hata-f (rice stem borer) assessed as synergistic ratio at 1:1 pirimiphos-methyl to compound ratio relative to pirimiphos-methyl alone
Chilo suppressalis [4] = assay: Potentiation of pirimiphos-methyl-induced insecticidal activity against OP-resistant Chilo suppressalis Hata-f (rice stem borer) assessed as synergistic ratio at 1:5 pirimiphos-methyl to compound ratio relative to pirimiphos-methyl alone
Chilo suppressalis [5] = assay: Potentiation of pirimiphos-methyl-induced insecticidal activity against OP-resistant Chilo suppressalis Hata-f (rice stem borer) assessed as synergistic ratio at 1:10 pirimiphos-methyl to compound ratio relative to pirimiphos-methyl alone

Structure (SMILES) | fold change (FC) (Chilo suppressalis [1]) | further results
CN(C)C(=O)Oc1c(Cl)cc(Cl)c2ccccc12 | 1.3 | –
Cc1cc(OC(=O)N(C)C)nc(C)n1 | 11 | –
CCNC(=O)Oc1ccc([N+](=O)[O-])c(C)c1 | 0.7 | –
CCNC(=O)Oc1ccc(SC)c(C)c1 | 0.6 | –
CCNC(=O)Oc1ccc(Cl)c(C)c1 | 1.2 | –
CCNC(=O)Oc1cccc2ccccc12 | 1 | –
Cc1cc(OC(=O)Nc2ccccc2)ccc1[N+](=O)[O-] | 0.9 | –
CSc1ccc(OC(=O)Nc2ccccc2)cc1C | 0.7 | –
Cc1cc(OC(=O)Nc2ccccc2)ccc1Cl | 0.8 | –
O=C(Nc1ccccc1)Oc1cccc2ccccc12 | 1 | –
CN(C)C(=S)Oc1ccc([N+](=O)[O-])cc1 | 1.6 | –
CSc1ccc(OC(=S)N(C)C)cc1 | 2.3 | –
CN(C)C(=S)Oc1ccc(C#N)cc1 | 2.1 | –
Cc1cc(OC(=S)N(C)C)ccc1[N+](=O)[O-] | 1.3 | –
CSc1ccc(OC(=S)N(C)C)cc1C | 4.9 | –
Cc1cc(OC(=S)N(C)C)ccc1Cl | 4.1 | –
CN(C)C(=O)Sc1ccc([N+](=O)[O-])cc1 | 1.9 | –
CN(C)C(=O)Sc1ccc(Cl)cc1 | 1.9 | –
CCN(CC)c1nc(C)cc(OC(=O)N(C)C)n1 | 20 | fold change (FC) (Chilo suppressalis [2]): 1; fold change (FC) (Chilo suppressalis [3]): 86; fold change (FC) (Chilo suppressalis [4]): 440; fold change (FC) (Chilo suppressalis [5]): 451
CN(C)C(=O)Oc1ccc(=O)n(-c2ccccc2)n1 | 3.1 | –
Cc1cc(OC(=O)N(C)C)no1 | 16 | fold change (FC) (Chilo suppressalis [3]): 90; fold change (FC) (Chilo suppressalis [4]): 438; fold change (FC) (Chilo suppressalis [5]): 582
CN(C)C(=O)Oc1cc(-c2ccccc2)on1 | 23 | fold change (FC) (Chilo suppressalis [2]): 0.9; fold change (FC) (Chilo suppressalis [3]): 67; fold change (FC) (Chilo suppressalis [4]): 328; fold change (FC) (Chilo suppressalis [5]): 419
CN(C)C(=O)Oc1cccc2ccccc12 | 13 | –
CN(C)C(=O)OCc1ccc2c(c1)OCO2 | 0.9 | –
CCOC(=O)/C=C(\C)OC(=O)N(C)C | 1 | –

Structure (SMILES) | fold change (FC) (Chilo suppressalis [1]) | further results
CCN(CC)C(=O)Oc1ccc([N+](=O)[O-])c(C)c1 | 2.3 | –
CCN(CC)C(=O)Oc1ccc(SC)c(C)c1 | 4.6 | –
CCN(CC)C(=O)Oc1ccc(Cl)c(C)c1 | 1.8 | –
CCN(CC)C(=O)Oc1cccc2ccccc12 | 2.5 | –
CCN(CC)C(=O)Oc1cc(C)nc(N(C)C)n1 | 13 | –
CCN(CC)C(=O)Oc1cc(C)nc(N(CC)CC)n1 | 8.7 | –
CCN(CC)C(=O)Oc1cc(-c2ccccc2)on1 | 4.1 | –
CNC(=O)Oc1ccc([N+](=O)[O-])c(C)c1 | 1.1 | –
CNC(=O)Oc1ccc(SC)c(C)c1 | 0.8 | –
CNC(=O)Oc1ccc(Cl)c(C)c1 | 1.1 | –
CN(C)C(=O)Oc1ccc(-c2ccccc2)cc1 | 2 | –
Cc1ccc([N+](=O)[O-])c(OC(=O)N(C)C)c1 | 3.1 | –
Cc1ccc(OC(=O)N(C)C)c([N+](=O)[O-])c1 | 5.8 | –
Cc1cc(OC(=O)N(C)C)ccc1Cl | 12 | –
CSc1ccc(OC(=O)N(C)C)cc1C | 22 | fold change (FC) (Chilo suppressalis [2]): 0.9; fold change (FC) (Chilo suppressalis [3]): 72; fold change (FC) (Chilo suppressalis [4]): 188; fold change (FC) (Chilo suppressalis [5]): 231
CN(C)C(=O)Oc1ccc([N+](=O)[O-])cc1Cl | 2.4 | –
CN(C)C(=O)Oc1ccc([N+](=O)[O-])c(Cl)c1 | 6.3 | –
CN(C)C(=O)Oc1ccc([N+](=O)[O-])c(C(F)(F)F)c1 | 8 | –
Cc1c(OC(=O)N(C)C)cc([N+](=O)[O-])cc1[N+](=O)[O-] | 1.1 | –
Cc1cc(OC(=O)N(C)C)cc(C)c1Cl | 11 | –
CN(C)C(=O)Oc1ccccn1 | 11 | –
CN(C)C(=O)Oc1nc(Cl)c(Cl)cc1Cl | 4.1 | –
CN(C)C(=O)Oc1ccc2ccccc2n1 | 15 | –
CN(C)C(=O)Oc1cccc2cccnc12 | 4.6 | –
Cc1cc(OC(=O)N(C)C)nc(-c2ccccc2)n1 | 13 | –

Structure (SMILES) | fold change (FC) (Chilo suppressalis [1]) | further results
CSc1nc(C)cc(OC(=O)N(C)C)n1 | 14 | –
COc1nc(C)cc(OC(=O)N(C)C)n1 | 13 | –
Cc1cc(OC(=O)N(C)C)nc(C(C)C)n1 | 15 | –
CNc1nc(C)cc(OC(=O)N(C)C)n1 | 21 | fold change (FC) (Chilo suppressalis [3]): 129; fold change (FC) (Chilo suppressalis [4]): 451; fold change (FC) (Chilo suppressalis [5]): 818
Cc1cc(OC(=O)N(C)C)nc(Nc2ccccc2)n1 | 2.8 | –
CCC(C)c1ccccc1OC(=O)N(C)C (stereo not given) | 1.8 | –
CN(C)C(=O)Oc1cccc(C(C)(C)C)c1 | 3.5 | –
CN(C)C(=O)Oc1cc(Cl)c(Cl)cc1Cl [2,4,5-TRICHLOROPHENYL DIMETHYLCARBAMATE] | 5.8 | –
CN(C)C(=O)Oc1ccc([N+](=O)[O-])cc1[N+](=O)[O-] [2,4-DINITROPHENYL DIMETHYLCARBAMATE] | 0.8 | –
CN(C)CCOC(=O)N(C)C [2-(DIMETHYLAMINO)ETHYL DIMETHYLCARBAMATE] | 1 | –
CCSCCOC(=O)N(C)C [2-(ETHYLTHIO)ETHYL DIMETHYLCARBAMATE] | 1 | –
CN(C)C(=O)Oc1ccccc1Cl [2-CHLOROPHENYL DIMETHYLCARBAMATE] | 5.1 | –
CN(C)C(=O)Oc1ccccc1[N+](=O)[O-] [2-NITROPHENYL DIMETHYLCARBAMATE] | 5.8 | –
Cc1ccc(OC(=O)N(C)C)cc1C [3,4-DIMETHYLPHENYL DIMETHYLCARBAMATE] | 9.5 | –
Cc1cc(C)cc(OC(=O)N(C)C)c1 [3,5-DIMETHYLPHENYL DIMETHYLCARBAMATE] | 5.8 | –
CN(C)C(=O)Oc1cccc(Cl)c1 [3-CHLOROPHENYL DIMETHYLCARBAMATE] | 11 | –
CC(C)c1cccc(OC(=O)N(C)C)c1 [3-ISOPROPYLPHENYL DIMETHYLCARBAMATE] | 4.3 | –
CN(C)C(=O)Oc1cccc([N+](=O)[O-])c1 [3-NITROPHENYL DIMETHYLCARBAMATE] | 8.2 | –
CCN(CC)C(=O)Oc1ccc(SC)cc1 [4-(METHYLTHIO)PHENYL DIETHYLCARBAMATE] | 2.9 | –
CSc1ccc(OC(=O)N(C)C)cc1 [4-(METHYLTHIO)PHENYL DIMETHYLCARBAMATE] | 16 | –
CCNC(=O)Oc1ccc(SC)cc1 [4-(METHYLTHIO)PHENYL ETHYLCARBAMATE] | 1.4 | –
CNC(=O)Oc1ccc(SC)cc1 [4-(METHYLTHIO)PHENYL METHYLCARBAMATE] | 1.1 | –
CC(=O)c1ccc(OC(=O)N(C)C)cc1 [4-ACETYLPHENYL DIMETHYLCARBAMATE] | 6.9 | –
CN(C)C(=O)Oc1ccc(Cl)cc1 [4-CHLOROPHENYL DIMETHYLCARBAMATE] | 10 | –
CCN(CC)C(=O)Oc1ccc(C#N)cc1 [4-CYANOPHENYL DIETHYLCARBAMATE] | 1.7 | –

Structure (SMILES) | fold change (FC) (Chilo suppressalis [1]) | further results
CN(C)C(=O)Oc1ccc(C#N)cc1 [4-CYANOPHENYL DIMETHYLCARBAMATE] | 14 | –
CCNC(=O)Oc1ccc(C#N)cc1 [4-CYANOPHENYL ETHYLCARBAMATE] | 1.5 | –
CNC(=O)Oc1ccc(C#N)cc1 [4-CYANOPHENYL METHYLCARBAMATE] | 1.1 | –
N#Cc1ccc(OC(=O)Nc2ccccc2)cc1 [4-CYANOPHENYL PHENYLCARBAMATE] | 0.8 | –
COc1ccc(OC(=O)N(C)C)cc1 [4-METHOXYPHENYL DIMETHYLCARBAMATE] | 3 | –
CN(C)C(=O)OCc1ccc([N+](=O)[O-])cc1 [4-NITROBENZYL DIMETHYLCARBAMATE] | 1 | –
CCN(CC)C(=O)Oc1ccc([N+](=O)[O-])cc1 [4-NITROPHENYL DIETHYLCARBAMATE] | 3.3 | –
CN(C)C(=O)Oc1ccc([N+](=O)[O-])cc1 [4-NITROPHENYL DIMETHYLCARBAMATE] | 10 | –
CCNC(=O)Oc1ccc([N+](=O)[O-])cc1 [4-NITROPHENYL ETHYLCARBAMATE] | 1.2 | –
CNC(=O)Oc1ccc([N+](=O)[O-])cc1 [4-NITROPHENYL METHYLCARBAMATE] | 0.9 | –
O=C(Nc1ccccc1)Oc1ccc([N+](=O)[O-])cc1 [4-NITROPHENYL PHENYLCARBAMATE] | 0.9 | –
CN(C)C(=O)OCc1ccccc1 [BENZYL DIMETHYLCARBAMATE] | 0.9 | –
CCOC(=O)Nc1ccccc1 [ETHYL PHENYLCARBAMATE] | 0.8 | –
CC(C)OC(=O)c1ccc(OC(=O)N(C)C)cc1 [ISOPROPYL 4-(DIMETHYLCARBAMOYLOXY)BENZOATE] | 0.9 | –
Cc1cccc(OC(=O)N(C)C)c1 [M-TOLYL DIMETHYLCARBAMATE] | 9.2 | –
COC(=O)c1ccc(OC(=O)N(C)C)cc1 [METHYL 4-(DIMETHYLCARBAMOYLOXY)BENZOATE] | 6.3 | –
CN(C)C(=O)Oc1ccc2ccccc2c1 [NAPHTHALEN-2-YL DIMETHYLCARBAMATE] | 16 | –
Cc1ccccc1OC(=O)N(C)C [O-TOLYL DIMETHYLCARBAMATE] | 4.3 | –
Cc1ccc(OC(=O)N(C)C)cc1 [P-TOLYL DIMETHYLCARBAMATE] | 8.1 | –
CN(C)C(=O)Oc1ccccc1 [PHENYL DIMETHYLCARBAMATE] | 5.8 | –
Cc1nc(N(C)C)nc(OC(=O)N(C)C)c1C [PIRIMICARB] | 6.3 | –
CN(C)C(=O)SCc1ccccc1 [S-BENZYL DIMETHYLCARBAMOTHIOATE] | 1 | –
